# Assay results from ChEMBL document CHEMBL3638586, “Inhibition of memapsin 1 cleavage in the treatment of diabetes” (2015).
# Tests used:
# Beta-secretase 2 = target: T1, Beta-secretase 2 (Homo sapiens, UniProt Q9Y5Z0); assay: (§1) Inhibition Assay: Previously, one of the following compounds discussed below have been studied in memapsin 2 inhibition (Ghosh et al., 2008), which the others are previously unpublished. Given the closely related substrate specificity for memapsin 1 and memapsin 2, the inventors chose to screen these previously identified memapsin 2 inhibitors for lead compounds as memapsin 1 inhibitors. Recombinant memapsin 1 ectodomain was prepared as described by Turner et al. (2002) and assayed using a commercially purchased fluorescent substrate.
# T1 sequence (Q9Y5Z0 whole entry): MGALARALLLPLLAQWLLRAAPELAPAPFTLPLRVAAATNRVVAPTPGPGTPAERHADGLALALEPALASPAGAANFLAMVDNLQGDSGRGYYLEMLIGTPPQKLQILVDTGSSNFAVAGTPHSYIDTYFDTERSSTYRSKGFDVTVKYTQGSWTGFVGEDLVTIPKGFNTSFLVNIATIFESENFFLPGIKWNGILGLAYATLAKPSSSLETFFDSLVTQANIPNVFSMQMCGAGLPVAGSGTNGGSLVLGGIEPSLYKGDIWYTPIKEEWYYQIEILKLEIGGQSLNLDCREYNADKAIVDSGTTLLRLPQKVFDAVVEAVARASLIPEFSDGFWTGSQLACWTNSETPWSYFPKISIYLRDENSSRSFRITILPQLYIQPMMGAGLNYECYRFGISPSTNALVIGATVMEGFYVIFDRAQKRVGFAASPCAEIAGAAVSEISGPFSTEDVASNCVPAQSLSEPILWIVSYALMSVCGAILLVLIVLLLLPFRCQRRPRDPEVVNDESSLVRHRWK
# Beta-secretase 1 = Beta-secretase 1 (Homo sapiens, UniProt P56817); assay: as §1
# Sequence of Beta-secretase 1 (P56817 whole entry): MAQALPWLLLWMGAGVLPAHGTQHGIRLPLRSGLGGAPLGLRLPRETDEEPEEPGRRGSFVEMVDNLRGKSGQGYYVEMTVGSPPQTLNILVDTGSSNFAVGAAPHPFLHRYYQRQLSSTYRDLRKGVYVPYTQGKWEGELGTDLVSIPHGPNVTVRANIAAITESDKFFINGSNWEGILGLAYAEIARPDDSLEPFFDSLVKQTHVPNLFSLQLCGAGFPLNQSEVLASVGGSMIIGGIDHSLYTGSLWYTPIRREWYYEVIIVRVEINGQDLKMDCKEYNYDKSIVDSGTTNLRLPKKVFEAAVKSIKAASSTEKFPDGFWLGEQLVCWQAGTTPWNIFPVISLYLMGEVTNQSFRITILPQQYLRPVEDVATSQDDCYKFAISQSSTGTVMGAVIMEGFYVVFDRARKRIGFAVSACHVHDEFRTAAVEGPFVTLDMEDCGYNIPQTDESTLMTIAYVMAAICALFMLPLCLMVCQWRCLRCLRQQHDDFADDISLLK
SMILES,Ki (Beta-secretase 2) [nM],Ki (Beta-secretase 1) [nM],IC50 (Beta-secretase 2) [nM]
CCCC(O)N(NC[C@H](Cc1ccccc1)NC(=O)c1cc2c3c(c1)c(CC)cn3CC1(CC1)S(=O)(=O)N2C)C(=O)NC(C)C (stereo partly drawn),30,,
CCc1cn2c3c(cc(C(=O)N[C@@H](Cc4ccccc4)C(O)CNCc4cccc(C(F)(F)F)c4)cc13)N(C)S(=O)(=O)C1(CC1)C2 (stereo partly drawn),521,,
CC(C)CNC(=O)C(NCC(O)C(Cc1ccccc1)NC(=O)c1cccc(C(=O)N(C)C(C)c2ccccc2)c1)C(C)O (stereo not drawn),63.1,5810,
CCCC(O)C(NCC(O)C(Cc1ccccc1)NC(=O)c1cccc(C(=O)N(C)C(C)c2ccccc2)c1)C(=O)NCC(C)C (stereo not drawn),0.02,5250,
CCCC(O)C(NCC(O)C(Cc1ccccc1)NC(=O)c1cccc(C(=O)N2CCCC2OC)c1)C(=O)NCC(C)C (stereo not drawn),76.6,267,
CCCC(O)C(NCC(O)C(Cc1ccccc1)NC(=O)c1cc(C)cc(C(=O)N2CCCC2OC)c1)C(=O)NCC(C)C (stereo not drawn),19.7,6.56,
CCc1cn2c3c(cc(C(=O)N[C@@H](Cc4ccccc4)[C@H](O)CNC(COC)c4cccc(C(F)(F)F)c4)cc13)N(C)S(=O)(=O)C1(CC1)C2 (stereo partly drawn),199,,
NC1=Nc2ccc(Oc3ccccc3)cc2CN1C(CCC(=O)N(CC1CCC(=O)N1)C1CCCCC1)C1CCCCC1 (stereo not drawn),48,,
CC(C)CN1CCNC(C(O)C(Cc2ccccc2)NC(=O)c2cc(C(=O)NC(C)c3ccccc3)cc(N(C)S(C)(=O)=O)c2)C1 (stereo not drawn),6060,,
CSC[C@H](NC(=O)C1NOC2OCCC21)C(=O)NC(CC(C)C)[C@@H](O)CC(C)C(=O)NC(C(=O)N(C)C)C(C)C (stereo partly drawn),46,,
COCC(NC(=O)OCC(C1CCCCC1)N1Cc2cc(Oc3ccccc3)ccc2N=C1N)C(=O)N(C)C (stereo not drawn),350,,
CC(C)CC(NC(=O)[C@H](CS(C)(=O)=O)NC(=O)C1NOC2OCCC21)[C@@H](O)CC(C)C(=O)NC(C(=O)N(C)C)C(C)C (stereo partly drawn),53,,
Cc1ncsc1CN(C(=O)CCC(C1CCCCC1)N1Cc2cc(Oc3ccccc3)ccc2N=C1N)C1CCCCC1 (stereo not drawn),53,,
Cc1oncc1CN(C(=O)CCC(C1CCCCC1)N1Cc2cc(Oc3ccccc3)ccc2N=C1N)C1CCCCC1 (stereo not drawn),70,,
COc1ccc(C(C(C)O)C(Cc2ccccc2)NC(=O)c2cc(C(=O)NC(C)c3ccccc3)cc(N(C)S(C)(=O)=O)c2)cc1 (stereo not drawn),,,700
CCCC(O)C(NCC(O)C(Cc1ccccc1)NC(=O)c1cc(C)cc(C(=O)N(C)C(C)c2ccccc2)c1)C(=O)NCC(C)C (stereo not drawn),0.0014,563,
CC(C)CNC(=O)C(NCC(O)C(Cc1ccccc1)NC(=O)c1cc(C(=O)NC(C)c2ccccc2)cc(N(C)S(C)(=O)=O)c1)C(C)O (stereo not drawn),37,,
Cc1cc(C(=O)NC(Cc2ccccc2)C(O)CNC(C(=O)NCC(C)C)C(C)O)cc(C(=O)N(C)C(C)c2ccccc2)c1 (stereo not drawn),1,1660,
CC(C)CNC(=O)C(NCC(O)C(Cc1ccccc1)NC(=O)c1cc(C(=O)NC(C)c2ccc(I)cc2)cc(N(C)S(C)(=O)=O)c1)C(C)O (stereo not drawn),89,,
CC(CN1Cc2cc(Oc3ccccc3)ccc2N=C1N)C(=O)NCCC(C)(C)C (stereo not drawn),,,500
COc1cccc(C(NCC(O)C(Cc2ccccc2)NC(=O)c2cc(C(=O)NC(C)c3ccccc3)cc(N(C)S(C)(=O)=O)c2)C(C)O)c1 (stereo not drawn),,,350
CCCC(O)N(NC[C@H](Cc1ccccc1)NC(=O)c1cc2c3c(c1)c(CC)cn3CC1(CC1)S(=O)(=O)N2C)C(=O)NCC(C)C (stereo partly drawn),11,,
